Source: article PMC7614683, “A small molecule PI3Kα activator for cardioprotection and neuroregeneration” (Nature, 2023)
Like-named read-outs stand apart in the source and are kept apart here.

Experiments:
Test in all cases: SelectScreen Adapta
Format in all cases: biochemical
NUAK1 (ARK5) = biological target: T1, NUAK1 (ARK5) (Homo sapiens, UniProt O60285)
T1 sequence (O60285 1-661): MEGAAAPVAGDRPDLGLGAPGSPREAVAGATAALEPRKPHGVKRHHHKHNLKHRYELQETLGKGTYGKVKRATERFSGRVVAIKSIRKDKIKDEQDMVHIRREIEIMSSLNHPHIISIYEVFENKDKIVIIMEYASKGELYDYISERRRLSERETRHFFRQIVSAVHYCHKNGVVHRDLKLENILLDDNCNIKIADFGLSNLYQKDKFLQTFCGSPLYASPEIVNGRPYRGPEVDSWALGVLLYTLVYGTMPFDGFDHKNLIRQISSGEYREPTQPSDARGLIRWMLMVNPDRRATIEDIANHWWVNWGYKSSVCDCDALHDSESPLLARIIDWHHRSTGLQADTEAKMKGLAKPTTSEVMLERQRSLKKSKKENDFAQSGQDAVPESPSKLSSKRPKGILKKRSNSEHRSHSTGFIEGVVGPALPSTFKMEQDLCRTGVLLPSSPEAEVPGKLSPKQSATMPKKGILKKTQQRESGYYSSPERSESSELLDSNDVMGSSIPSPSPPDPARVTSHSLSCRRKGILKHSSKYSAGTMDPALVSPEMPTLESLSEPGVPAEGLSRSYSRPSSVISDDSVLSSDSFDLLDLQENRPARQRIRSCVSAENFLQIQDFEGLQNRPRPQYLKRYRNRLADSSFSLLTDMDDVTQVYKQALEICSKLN
Method: (§1) 133 protein kinases and 7 lipid kinases were counterscreened, with 1938 used at 1 μM, using the Adapta, Lantha and Z-LYTE assays (SelectScreen Kinase Profiling Service; Thermofisher – experimental details of these assays can be found here: https://www.thermofisher.com/uk/en/home/industrial/pharma-biopharma/drug-discovery-development/target-and-lead-identification-and-validation/kinasebiology/kinase-activity-assays.html. The tree represention in KinMap[59] generated courtesy of Cell Signaling Technology, Inc. (www.cellsignal.com). mTORC1 (mTOR/RAPTOR/LST8) protein complex and ATM kinase and substrates were produced as previously described[57],[60]. Screening of 1938 was conducted using SuperSep Phos-Tag 50 μmol/l 100 x 100 x 6.6 mm 17-well (192-18001/199-18011) gels. For ATM assays, 100 nM ATM was incubated for 30 min at 30°C with 5 μM GST-p53 and 1 mM ATP, in the absence or presence of 200 μM 1938 in ATM Kinase Buffer (50 mM HEPES pH 7.5, 100 mM NaCl, 10% glycerol, 2 mM […], 5 mM MgCl2). As a positive control for ATM activation, the same reaction was carried out with 100 nM ATM/5 μM GST-p53/1 mM ATP in the presence of 100 nM Mre11-Rad50-Nbs1 (MRN) complex, a known activator of ATM[61]. For mTORC1 assays, 50 nM mTORC1 complex (mTOR/LST8/RAPTOR) was incubated for 3 h at 30°C with 15 μM 4E-BP1, 10 mM MgCl2 and 250 μM ATP, in the absence or presence of 200 μM 1938. As a ‘positive’ control, a higher concentration (150 nM) of mTORC1 complex (mTOR/LST8/RAPTOR) was incubated for 3 h at 30°C with 15 μM 4E-BP1, 10 mM MgCl2 and 250 μM ATP. Kinase reactions were quenched by addition of SDS-PAGE Loading Buffer (as per manufacturer’s instructions) and freezing at -20°C before being run on the Phos-tag gels at 150 V for 90 min. Gels were then stained using InstantBlue™ Coomassie, and quantified using BioRad Image Lab Software. Kinase assays were carried out in triplicate.

[1] = biological target: PIK3CA/PIK3R1 (p110 alpha/p85 alpha) (Homo sapiens, UniProt P42336)
Sequence of PIK3CA/PIK3R1 (p110 alpha/p85 alpha) (P42336 whole entry): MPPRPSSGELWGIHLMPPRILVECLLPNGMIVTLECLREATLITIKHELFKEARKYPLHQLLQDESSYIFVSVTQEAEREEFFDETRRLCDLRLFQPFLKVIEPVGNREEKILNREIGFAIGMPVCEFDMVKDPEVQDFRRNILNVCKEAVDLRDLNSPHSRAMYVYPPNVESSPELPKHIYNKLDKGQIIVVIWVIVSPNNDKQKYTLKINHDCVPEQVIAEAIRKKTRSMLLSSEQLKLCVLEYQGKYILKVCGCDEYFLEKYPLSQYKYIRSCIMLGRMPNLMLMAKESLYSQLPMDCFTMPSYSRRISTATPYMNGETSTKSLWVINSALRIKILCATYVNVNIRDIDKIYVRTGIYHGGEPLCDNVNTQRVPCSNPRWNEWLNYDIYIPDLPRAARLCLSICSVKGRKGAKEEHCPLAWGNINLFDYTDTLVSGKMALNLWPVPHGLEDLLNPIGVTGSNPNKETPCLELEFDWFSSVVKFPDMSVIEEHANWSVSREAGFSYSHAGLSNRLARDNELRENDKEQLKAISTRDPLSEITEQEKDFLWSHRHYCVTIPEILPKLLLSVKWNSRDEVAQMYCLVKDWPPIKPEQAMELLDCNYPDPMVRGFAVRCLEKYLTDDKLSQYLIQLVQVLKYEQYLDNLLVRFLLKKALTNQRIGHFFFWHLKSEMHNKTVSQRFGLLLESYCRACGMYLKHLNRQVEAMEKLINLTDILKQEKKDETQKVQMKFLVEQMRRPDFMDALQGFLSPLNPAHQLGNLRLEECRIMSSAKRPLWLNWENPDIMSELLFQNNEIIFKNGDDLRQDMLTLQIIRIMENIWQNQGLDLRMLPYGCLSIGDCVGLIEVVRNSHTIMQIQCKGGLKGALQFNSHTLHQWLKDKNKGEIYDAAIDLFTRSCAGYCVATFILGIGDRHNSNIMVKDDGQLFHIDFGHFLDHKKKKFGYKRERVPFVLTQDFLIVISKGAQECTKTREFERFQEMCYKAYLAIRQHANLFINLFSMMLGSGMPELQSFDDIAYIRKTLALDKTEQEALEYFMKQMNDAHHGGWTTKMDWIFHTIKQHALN
Sequence of PIK3CA/PIK3R1 (p110 alpha/p85 alpha) (P27986 whole entry partner): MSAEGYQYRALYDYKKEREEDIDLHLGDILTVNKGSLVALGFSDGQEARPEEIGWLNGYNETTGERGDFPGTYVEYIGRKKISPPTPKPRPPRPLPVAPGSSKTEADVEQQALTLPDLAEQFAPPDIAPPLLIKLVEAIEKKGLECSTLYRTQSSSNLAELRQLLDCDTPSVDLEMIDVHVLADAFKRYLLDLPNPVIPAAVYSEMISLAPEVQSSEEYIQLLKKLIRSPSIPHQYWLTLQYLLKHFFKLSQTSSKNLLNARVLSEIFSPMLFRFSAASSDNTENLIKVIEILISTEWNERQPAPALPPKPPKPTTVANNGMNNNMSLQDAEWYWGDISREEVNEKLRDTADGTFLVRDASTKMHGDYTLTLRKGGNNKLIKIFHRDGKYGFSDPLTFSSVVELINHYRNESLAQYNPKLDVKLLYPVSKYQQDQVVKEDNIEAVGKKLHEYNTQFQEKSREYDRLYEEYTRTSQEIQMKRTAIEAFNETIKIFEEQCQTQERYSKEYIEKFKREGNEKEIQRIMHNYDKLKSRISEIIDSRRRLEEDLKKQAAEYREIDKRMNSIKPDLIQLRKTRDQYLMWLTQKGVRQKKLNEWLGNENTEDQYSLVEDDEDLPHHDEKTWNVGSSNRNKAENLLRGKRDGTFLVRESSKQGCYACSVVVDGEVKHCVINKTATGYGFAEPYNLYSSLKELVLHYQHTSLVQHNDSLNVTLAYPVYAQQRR
Method: as §1

CDK9/cyclin T1 = CDK9/cyclin T1 (Homo sapiens, UniProt P50750)
Sequence of CDK9/cyclin T1 (P50750 whole entry): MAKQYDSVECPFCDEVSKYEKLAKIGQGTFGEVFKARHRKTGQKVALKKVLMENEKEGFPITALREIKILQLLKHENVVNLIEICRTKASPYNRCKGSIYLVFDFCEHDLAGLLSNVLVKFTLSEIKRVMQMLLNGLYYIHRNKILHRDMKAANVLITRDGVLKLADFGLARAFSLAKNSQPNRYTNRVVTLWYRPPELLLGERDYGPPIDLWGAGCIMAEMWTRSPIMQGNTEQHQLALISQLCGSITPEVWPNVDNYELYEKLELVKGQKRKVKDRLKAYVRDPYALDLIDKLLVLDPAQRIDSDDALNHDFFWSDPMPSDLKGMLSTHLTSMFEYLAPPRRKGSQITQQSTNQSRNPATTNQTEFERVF
Sequence of CDK9/cyclin T1 (O60563 whole entry partner): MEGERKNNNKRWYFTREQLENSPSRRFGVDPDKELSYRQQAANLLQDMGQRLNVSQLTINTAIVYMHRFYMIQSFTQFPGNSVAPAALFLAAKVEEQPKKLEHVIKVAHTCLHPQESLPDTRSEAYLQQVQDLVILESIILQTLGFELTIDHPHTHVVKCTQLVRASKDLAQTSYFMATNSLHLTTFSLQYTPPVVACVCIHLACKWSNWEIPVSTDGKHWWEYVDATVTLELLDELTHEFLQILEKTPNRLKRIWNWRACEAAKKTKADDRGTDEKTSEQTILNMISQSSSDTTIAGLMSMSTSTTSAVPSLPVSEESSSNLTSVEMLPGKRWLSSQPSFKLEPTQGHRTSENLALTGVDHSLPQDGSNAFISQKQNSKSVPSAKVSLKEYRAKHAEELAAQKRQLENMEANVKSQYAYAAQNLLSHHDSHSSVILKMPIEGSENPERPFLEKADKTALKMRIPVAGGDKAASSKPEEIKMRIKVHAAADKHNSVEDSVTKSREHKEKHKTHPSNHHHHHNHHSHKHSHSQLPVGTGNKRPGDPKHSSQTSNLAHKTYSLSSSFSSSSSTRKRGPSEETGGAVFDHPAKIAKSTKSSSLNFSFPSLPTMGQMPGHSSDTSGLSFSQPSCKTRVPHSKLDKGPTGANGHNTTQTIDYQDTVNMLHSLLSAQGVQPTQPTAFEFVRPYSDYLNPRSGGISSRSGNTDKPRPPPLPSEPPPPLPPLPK
Method: as §1

PI4KB (PI4K beta) = PI4KB (PI4K beta) (Homo sapiens, UniProt Q9UBF8)
Sequence of PI4KB (PI4K beta) (Q9UBF8 whole entry): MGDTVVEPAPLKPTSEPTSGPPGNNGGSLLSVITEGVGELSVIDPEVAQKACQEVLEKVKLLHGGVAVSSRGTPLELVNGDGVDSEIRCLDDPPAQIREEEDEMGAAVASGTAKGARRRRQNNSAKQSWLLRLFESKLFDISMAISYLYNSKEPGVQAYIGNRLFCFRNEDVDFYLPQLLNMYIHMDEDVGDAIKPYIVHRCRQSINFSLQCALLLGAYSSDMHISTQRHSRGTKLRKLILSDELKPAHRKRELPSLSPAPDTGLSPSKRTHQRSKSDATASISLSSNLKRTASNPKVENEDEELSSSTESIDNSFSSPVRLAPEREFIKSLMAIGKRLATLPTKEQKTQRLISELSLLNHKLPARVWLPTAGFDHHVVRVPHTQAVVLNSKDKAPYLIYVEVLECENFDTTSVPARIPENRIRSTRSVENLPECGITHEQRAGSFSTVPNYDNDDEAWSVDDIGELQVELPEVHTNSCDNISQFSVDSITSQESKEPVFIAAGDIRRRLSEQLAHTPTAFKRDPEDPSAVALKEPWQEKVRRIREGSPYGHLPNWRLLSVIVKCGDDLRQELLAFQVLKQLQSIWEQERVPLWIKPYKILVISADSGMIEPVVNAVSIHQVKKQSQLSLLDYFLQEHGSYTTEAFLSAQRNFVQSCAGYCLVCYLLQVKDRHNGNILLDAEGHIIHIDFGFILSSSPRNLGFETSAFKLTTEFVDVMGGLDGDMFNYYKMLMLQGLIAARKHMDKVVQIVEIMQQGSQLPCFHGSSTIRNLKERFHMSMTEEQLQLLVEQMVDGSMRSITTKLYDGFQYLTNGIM
Method: as §1

GSG2 (Haspin) = biological target: T2, GSG2 (Haspin) (Homo sapiens, UniProt Q8TF76)
T2 sequence (Q8TF76 1-798): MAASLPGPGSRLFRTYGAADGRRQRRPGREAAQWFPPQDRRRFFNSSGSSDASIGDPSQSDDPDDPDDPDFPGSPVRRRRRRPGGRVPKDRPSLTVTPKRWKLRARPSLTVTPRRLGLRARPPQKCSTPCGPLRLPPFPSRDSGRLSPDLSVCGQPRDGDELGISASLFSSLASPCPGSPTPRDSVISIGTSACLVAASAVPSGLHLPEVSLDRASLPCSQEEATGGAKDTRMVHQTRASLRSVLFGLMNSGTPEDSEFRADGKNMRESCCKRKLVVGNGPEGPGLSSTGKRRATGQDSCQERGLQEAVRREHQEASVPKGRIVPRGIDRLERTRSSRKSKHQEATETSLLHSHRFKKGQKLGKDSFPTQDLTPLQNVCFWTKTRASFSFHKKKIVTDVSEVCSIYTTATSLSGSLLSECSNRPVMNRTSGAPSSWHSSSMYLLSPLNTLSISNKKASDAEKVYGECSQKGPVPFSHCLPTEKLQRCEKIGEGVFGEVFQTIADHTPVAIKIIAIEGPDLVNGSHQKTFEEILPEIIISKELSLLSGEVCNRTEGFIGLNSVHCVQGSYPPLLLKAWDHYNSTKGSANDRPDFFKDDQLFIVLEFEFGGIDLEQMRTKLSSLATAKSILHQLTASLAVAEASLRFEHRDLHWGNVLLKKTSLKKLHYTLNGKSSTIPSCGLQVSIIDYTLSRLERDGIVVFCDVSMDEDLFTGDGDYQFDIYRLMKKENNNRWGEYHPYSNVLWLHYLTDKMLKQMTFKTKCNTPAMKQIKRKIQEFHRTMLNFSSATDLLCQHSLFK
Method: as §1

[2] = biological target: PIK3CB/PIK3R1 (p110 beta/p85 alpha) (Homo sapiens, UniProt P42338)
Sequence of PIK3CB/PIK3R1 (p110 beta/p85 alpha) (P42338 whole entry): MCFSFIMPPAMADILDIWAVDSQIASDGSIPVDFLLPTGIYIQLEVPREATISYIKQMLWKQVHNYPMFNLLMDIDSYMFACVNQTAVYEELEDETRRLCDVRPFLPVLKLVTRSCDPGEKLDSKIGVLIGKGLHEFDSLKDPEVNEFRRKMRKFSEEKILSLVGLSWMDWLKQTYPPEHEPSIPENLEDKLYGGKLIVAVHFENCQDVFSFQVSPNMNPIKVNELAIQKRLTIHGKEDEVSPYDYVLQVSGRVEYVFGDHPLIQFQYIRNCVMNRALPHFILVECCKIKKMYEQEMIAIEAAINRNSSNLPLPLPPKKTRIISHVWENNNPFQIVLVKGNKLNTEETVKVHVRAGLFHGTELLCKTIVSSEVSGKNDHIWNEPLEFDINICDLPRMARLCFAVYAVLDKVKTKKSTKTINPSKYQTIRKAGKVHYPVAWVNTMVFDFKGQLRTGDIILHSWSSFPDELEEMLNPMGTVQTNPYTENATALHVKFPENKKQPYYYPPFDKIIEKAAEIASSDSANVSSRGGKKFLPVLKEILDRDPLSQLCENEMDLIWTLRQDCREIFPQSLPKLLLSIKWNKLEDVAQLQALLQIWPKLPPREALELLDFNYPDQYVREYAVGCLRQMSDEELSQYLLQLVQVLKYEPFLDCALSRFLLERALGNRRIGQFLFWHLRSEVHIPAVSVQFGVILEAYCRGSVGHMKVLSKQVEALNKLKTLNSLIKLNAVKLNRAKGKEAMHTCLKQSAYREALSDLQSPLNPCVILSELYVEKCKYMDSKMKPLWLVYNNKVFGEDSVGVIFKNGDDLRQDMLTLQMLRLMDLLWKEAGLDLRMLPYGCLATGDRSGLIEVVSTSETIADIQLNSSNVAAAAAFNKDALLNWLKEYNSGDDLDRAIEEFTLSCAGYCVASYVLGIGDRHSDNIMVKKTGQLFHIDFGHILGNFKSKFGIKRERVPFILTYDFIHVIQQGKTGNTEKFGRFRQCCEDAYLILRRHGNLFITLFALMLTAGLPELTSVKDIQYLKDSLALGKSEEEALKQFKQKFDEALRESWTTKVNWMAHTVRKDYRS
Sequence of PIK3CB/PIK3R1 (p110 beta/p85 alpha) (P27986 whole entry partner): as the sequence (P27986 whole entry partner) above
Method: as §1

CCN1CCN(c2ccc(Nc3cc(Nc4cccc5c4N(C(C)=O)CC5)ccn3)cc2)CC1 [Compound 1938]
inhibition at 1 µM (NUAK1 (ARK5); read-out: % Inhibition Point 1): 45% | inhibition at 1 µM (NUAK1 (ARK5); read-out: % Inhibition Point 2): 39% | inhibition at 1 µM (NUAK1 (ARK5); read-out: % Inhibition mean): 42% | inhibition at 1 µM ([1]; read-out: % Inhibition Point 1): -19% | inhibition at 1 µM ([1]; read-out: % Inhibition Point 2): -20% | inhibition at 1 µM ([1]; read-out: % Inhibition mean): -19% | inhibition at 1 µM (CDK9/cyclin T1; read-out: % Inhibition Point 1): 10% | inhibition at 1 µM (CDK9/cyclin T1; read-out: % Inhibition Point 2): 2% | inhibition at 1 µM (CDK9/cyclin T1; read-out: % Inhibition mean): 6% | inhibition at 1 µM (PI4KB (PI4K beta); read-out: % Inhibition Point 1): -1.1% | inhibition at 1 µM (PI4KB (PI4K beta); read-out: % Inhibition Point 2): 0.786% | inhibition at 1 µM (PI4KB (PI4K beta); read-out: % Inhibition mean): -0.157% | inhibition at 1 µM (GSG2 (Haspin); read-out: % Inhibition Point 1): -18% | inhibition at 1 µM (GSG2 (Haspin); read-out: % Inhibition Point 2): 2.17% | inhibition at 1 µM (GSG2 (Haspin); read-out: % Inhibition mean): -8% | inhibition at 1 µM ([2]; read-out: % Inhibition Point 1): 2.51% | inhibition at 1 µM ([2]; read-out: % Inhibition Point 2): 0.803% | inhibition at 1 µM ([2]; read-out: % Inhibition mean): 1.66%
